Assay results published in the RepoRT retention time repository.

Test: Waters XBridge C18, 0.2 mL/min; A: water + 0.1% formic acid; B: methanol + 0.1% formic acid; gradient (min/%B) 0/10 4/50 17/95 25/95
Settings: stereoisomer not certain

SMILES | LC retention time [min]
CN(C(=O)COc1nc2ccccc2s1)c1ccccc1 | 13
Cc1cccc2n[nH]nc12 | 7.2
c1ccc2n[nH]nc2c1 | 5.8
Cc1cc(=O)n(-c2ccccc2)n1C | 5.9
CN(C)CCOC(c1ccccc1)c1ccccc1 | 7.4
NC(=O)N1c2ccccc2C=Cc2ccccc21 | 9.3
CCN(CC)C(=O)c1cccc(C)c1 | 10
CN(C)C(=N)N=C(N)N | 1.2
CC(C)NCC(O)COc1ccc(CC(=O)O)cc1 (stereo not drawn) | 4.7
Nc1ccc(S(=O)(=O)Nc2nccs2)cc1 | 4.2
CCN1CCCC1CNC(=O)c1cc(S(=O)(=O)CC)c(N)cc1OC (stereo not drawn) | 4.6
NC(=O)N1c2ccccc2CC(=O)c2ccccc21 | 8
CC(C)NCC(O)COc1ccc(COCCOC(C)C)cc1 (stereo not drawn) | 6.7
CC(C)OC(=O)C(C(=O)OC(C)C)=C1SCCS1 | 13
CC(C)OP(=O)(OC(C)C)SCc1ccccc1 | 14
COc1cc(Cc2cnc(N)nc2N)cc(OC)c1OC | 4.7
Cc1cccc(Nc2ccccc2C(=O)O)c1C | 16
CC(C)NCC(O)COc1ccc(CC(N)=O)cc1 (stereo not drawn) | 3.5
COC(=O)Nc1nc2ccccc2[nH]1 | 4.7
COc1ccc(CN2CCNCC2)c(OC)c1OC | 3.5
O=P(c1ccccc1)(c1ccccc1)c1ccccc1 | 11
COc1cccc(C2(O)CCCCC2CN(C)C)c1 (stereo not drawn) | 5.7

SMILES | LC retention time [min]
CCCC1CC(C(=O)NC(C(C)O)C2OC(SC)C(O)C(O)C2O)N(C)C1 (stereo not drawn) | 4.7
CCCCC(=O)N(Cc1ccc(-c2ccccc2-c2nn[nH]n2)cc1)C(C(=O)O)C(C)C (stereo not drawn) | 12
CNC(=C[N+](=O)[O-])NCCS(=O)Cc1ccc(CN(C)C)o1 (stereo not drawn) | 1.2
CC(C)NCC(O)COc1cccc2ccccc12 (stereo not drawn) | 7.2
Cc1cc(NS(=O)(=O)c2ccc(N)cc2)no1 | 5.7
CCN(CC)CC(=O)Nc1c(C)cccc1C | 5.2
CC(C)N1C(=O)c2ccccc2NS1(=O)=O | 8.9
CNC(=C[N+](=O)[O-])NCCSCc1ccc(CN(C)C)o1 | 5.6
CCC(C)OC(=O)N1CCCCC1CCO (stereo not drawn) | 9.9
COc1ccc2cc(C(C)C(=O)O)ccc2c1 (stereo not drawn) | 12
CCC1OC(=O)C(C)C(OC2CC(C)(OC)C(O)C(C)O2)C(C)C(OC2OC(C)CC(N(C)C)C2O)C(C)(O)CC(C)C(=NOCOCCOC)C(C)C(O)C1(C)O (stereo not drawn) | 10
COC=C(C(=O)OC)c1ccccc1Oc1cc(Oc2ccccc2C#N)ncn1 | 11
CC(C)(C(=O)O)c1ccc(C(O)CCCN2CCC(C(O)(c3ccccc3)c3ccccc3)CC2)cc1 (stereo not drawn) | 8.6
CCCCC1=NC2(CCCC2)C(=O)N1Cc1ccc(-c2ccccc2-c2nn[nH]n2)cc1 | 11
O=C(O)c1ccc(-c2ccccc2-c2nn[nH]n2)cc1 | 7.9
COCC(=O)N(c1c(C)cccc1C)C(C)C(=O)OC (stereo not drawn) | 10
CN=C(NC#N)NCCSCc1nc[nH]c1C | 3.6
Cc1cc(C)nc(NS(=O)(=O)c2ccc(N)cc2)n1 | 5.2
COc1ccc(C(CN(C)C)C2(O)CCCCC2)cc1 (stereo not drawn) | 6.9
Cc1cccc2sc3nncn3c12 | 7.3
Nc1ccc(S(=O)(=O)Nc2ccccn2)cc1 | 4.4
